The values below come from article PMC3056882 (Steroids, 2011).

Like-named read-outs stand apart in the source and are kept apart here.

In general, Km refers to the concentration of substrate that gives half-maximal velocity. The term kcat denotes the maximal rate divided by the concentration of active sites. By Kd is commonly meant the constant that tells how readily two partners part at equilibrium. As usually defined, the kcat/Km is the second-order rate constant that governs catalysis at low substrate concentration.

Data set [1] has as its target T1, AKR1D1 (Homo sapiens, UniProt P51857).
T1 sequence (P51857 1-326): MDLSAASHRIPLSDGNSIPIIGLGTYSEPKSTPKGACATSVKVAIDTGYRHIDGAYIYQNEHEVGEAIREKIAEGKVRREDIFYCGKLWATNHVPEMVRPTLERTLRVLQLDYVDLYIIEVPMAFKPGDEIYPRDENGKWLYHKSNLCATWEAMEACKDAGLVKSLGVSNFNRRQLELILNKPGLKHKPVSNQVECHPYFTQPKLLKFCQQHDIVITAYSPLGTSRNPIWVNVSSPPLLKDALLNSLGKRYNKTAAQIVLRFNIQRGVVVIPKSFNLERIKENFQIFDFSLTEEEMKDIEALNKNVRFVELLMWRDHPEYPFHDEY
The format is biochemical. The note with it: for Km / kcat: fluorimetric, pH 6.0, 15 μM NADPH, 37 °C.

Data set [2] has as its target T1, AKR1D1. As to the kind of experiment: Inhibition of [4-14C]-testosterone reduction, radiometric assay. As to conditions: for ability to inhibit the AKR1D1 dependent reduction of testosterone: result in words; for mode of inhibition of AKR1D1: C, competitive inhibition, NC, non-competitive inhibition. The format is biochemical.
For data set [3], the target named is T1, AKR1D1. As to the kind of experiment: Dissociation constant of AKR1D1-NADPH binary complex by fluorescence titration. Type of data set: binding.
A further data set deals with aldose reductase AKR1B1. The note with it: read-out: Kd of NADPH for aldose reductase AKR1B1; cited from earlier work.
The target of another data set is AKR1C1. As to conditions: read-out: Ki AKR1C1; competitive (C); ref Bauman et al., 2005 [28]; cited from earlier work.
In another data set the target is AKR1C2. The note with it: read-out: Ki AKR1C2; competitive (C); ref Bauman et al., 2005 [28]; cited from earlier work.
The target in the next data set is AKR1C3. The note with it: read-out: Ki AKR1C3; competitive (C); ref Bauman et al., 2005 [28]; cited from earlier work.
The target of data set [4] is T1, AKR1D1. The note with it: cited from earlier work.
Substrate in data set [5]: C[C@]12CCC(=O)C=C1CC[C@@H]1[C@@H]2[C@@H](O)C[C@@]2(C)[C@H]1CC[C@]2(O)C(=O)CO
Type of data set: biochemical, human. The note with it: other: fluorimetric, pH 6.0, 15 μM NADPH, 37 °C.

Substrate in data set [6]: C[C@]12CCC(=O)C=C1CC[C@@H]1[C@@H]2[C@@H](O)C[C@]2(C=O)[C@@H](C(=O)CO)CC[C@@H]12
The format is biochemical, human. As to conditions: other: fluorimetric, pH 6.0, 15 μM NADPH, 37 °C.

Substrate in data set [7]: C[C@]12CC[C@H]3[C@@H](CCC4=CC(=O)CC[C@@]43C)[C@@H]1CC[C@H]2O
The format is biochemical, human. The note with it: other: fluorimetric, pH 6.0, 15 μM NADPH, 37 °C.

Setting [8] is: dissociation constant for substrate from the E-NADP(H) complex, N.D. = not detected.
[9] abbreviates: read-out: Ki (substrate inhibition), dissociation constant for substrate from the E-NADP(H) complex, N.D. = not detected.
The mark [10] stands for this setting: ref Di Costanzo et al., 2008 [13].

`C[C@]12CCC(=O)C=C1CC[C@@H]1[C@@H]2[C@@H](O)C[C@@]2(C)[C@H]1CC[C@]2(O)C(=O)CO` [Cortisol]: the “Ki (substrate inhibition)” value on AKR1D1 [1] (setting [8]) was “do not exhibit substrate inhibition”.

For the molecule `CC(C)CCC[C@@H](C)[C@H]1CC[C@H]2[C@@H]3CCC4=CC(=O)CC[C@]4(C)[C@H]3CC[C@]12C` [Cholestenone], on AKR1D1 [1], the Michaelis constant (Km) is 0.3 ± 0.1 µM and the turnover number (kcat) worked out at 0.01 ± 0.00067 s⁻¹.

Regarding `COc1ccc2c(c1)c(CC(=O)O)c(C)n2C(=O)c1ccc(Cl)cc1` [Indomethacin], on AKR1D1 [2], the Ki is greater than 100 µM and the “ability to inhibit the AKR1D1 dependent reduction of testosterone” value is given as “ineffective”.

`C[C@]12CC[C@H]3[C@@H](CCC4=CC(=O)CC[C@@]43C)[C@@H]1CC[C@H]2O` [Epitestosterone] yielded a Ki at AKR1D1 [1] of 10 ± 2.2 µM.

In the case of NADPH, the “Kd fold higher than AKR1B1” value on AKR1D1 [3] (AKR1D1 vs AKR1B1 (human aldose reductase)) worked out at 5 fold. In addition, the Kd on AKR1D1 [3] (read-out: dissociation constant (Kd) of NADPH for wild-type AKR1D1, fluorescence titration, 10 mM potassium phosphate pH 6.0, 37 °C) was 0.043 ± 0.016 µM; on aldose reductase AKR1B1, 0.009 µM.

For `C[C@]12C[C@H](O)[C@H]3[C@@H](CCC4=CC(=O)CC[C@@]43C)[C@@H]1CC[C@@H]2C(=O)CO` [Corticosterone], the “Ki (substrate inhibition)” value at AKR1D1 [1] (setting [8]) is “do not exhibit substrate inhibition”. Besides, on AKR1D1 [1], the Km was 2.2 ± 0.5 µM and the kcat is 0.0317 ± 0.0017 s⁻¹.

Turning to `O=C(O)c1ccc(C(=O)c2ccccc2)cc1` [4-Benzoylbenzoic acid], the Ki at AKR1D1 [2] is greater than 100 µM; on AKR1C1 it was 12.5 µM; at AKR1C2 it was 13.3 µM; on AKR1C3 it was 1.9 µM. Also, the “ability to inhibit the AKR1D1 dependent reduction of testosterone” value at AKR1D1 [2] is “ineffective”.

The molecule `C[C@]12CCC(=O)C=C1CC[C@@H]1[C@@H]2[C@@H](O)C[C@]2(C=O)[C@@H](C(=O)CO)CC[C@@H]12` [Aldosterone] had a Ki at AKR1D1 [1] of 66.5 ± 15.7 µM.

Consider `C[C@]12CC[C@H]3[C@@H](CCC4=CC(=O)C=C[C@@]43C)[C@@H]1CC[C@@H]2O` [1,4-Androstadien-17β-ol-3-one], for which, on AKR1D1 [4] (ref Drury et al., 2009 [14]), the Michaelis constant (Km) is 3.2 ± 0.2 µM and the kcat was 0.035 ± 0.0017 s⁻¹.

Take `C[C@H](CCC(=O)O)[C@H]1CC[C@H]2[C@@H]3[C@H](O)C[C@@H]4C[C@H](O)CC[C@]4(C)[C@H]3CC[C@]12C` [Chenodeoxycholic acid]: the Ki on AKR1D1 [2] was 3.2 µM; on AKR1C1 it was 8.3 µM; at AKR1C2, 0.017 µM; on AKR1C3, 10 µM. Also, the “mode of inhibition of AKR1D1” value at AKR1D1 [2] is “non-competitive”.

In the case of `Cc1cccc(Nc2ccccc2C(=O)O)c1C` [Mefenamic acid], the Ki at AKR1D1 [2] was greater than 100 µM; at AKR1C1 it was 0.8 µM. At AKR1D1 [2], the “ability to inhibit the AKR1D1 dependent reduction of testosterone” value was “ineffective”.

For `C[C@]12CCC(=O)C=C1CC[C@@H]1[C@@H]2CC[C@]2(C)C(=O)CC[C@@H]12` [Δ^4-Androstene-3,17-dione], on AKR1D1 [1], the Km was 0.9 ± 0.2 µM and the kcat stood at 0.1 ± 0.013 s⁻¹. Also, the Ki on AKR1D1 [1] (setting [9]) came to 4.3 ± 1.3 µM.

With `CC(=O)[C@H]1CC[C@H]2[C@@H]3CCC4=CC(=O)CC[C@]4(C)[C@H]3CC[C@]12C` [progesterone], on AKR1D1 [1], the Ki is less than 2 µM, the Michaelis constant (Km) is less than 0.2 µM and the kcat was greater than 0.067 s⁻¹.

`C[C@]12CC[C@H]3[C@@H](CCC4=CC(=O)CC[C@@]43C)[C@@H]1CC[C@@H]2O` [Testosterone]: the Ki at AKR1D1 [4] (read-out: Ki (substrate inhibition), ref Di Costanzo et al., 2008 [13]) was 14.5 ± 5.8 µM. Moreover, at AKR1D1 [4] (setting [10]), the Km was 2.7 ± 1.2 µM and the kcat was 0.14 ± 0.0333 s⁻¹.

In the case of `C[C@]12CC[C@H]3[C@@H](CCC4=CC(=O)CC[C@@H]43)[C@@H]1CC[C@@H]2O` [4-Estren-17β-ol-3-one], on AKR1D1 [1], the Km was 3 ± 0.5 µM and the kcat amounted to 0.045 ± 0.0033 s⁻¹. Moreover, the Ki on AKR1D1 [1] (setting [9]) came to 18.6 ± 3.4 µM.

On to `C[C@H](CCC(=O)O)[C@H]1CC[C@H]2[C@@H]3[C@@H](O)C[C@@H]4C[C@H](O)CC[C@]4(C)[C@H]3CC[C@]12C` [Ursodeoxycholic acid], for which the Ki is 9.8 µM at AKR1D1 [2], 4.9 µM on AKR1C1, 0.011 µM on AKR1C2 and 1.3 µM on AKR1C3. At AKR1D1 [2], the “mode of inhibition of AKR1D1” value is on record as “non-competitive”.

Turning to `C[C@]12CCC(=O)C=C1CC[C@@H]1[C@@H]2C(=O)C[C@@]2(C)[C@H]1CC[C@]2(O)C(=O)CO` [Cortisone], on AKR1D1 [1], the Km is 15.1 ± 0.3 µM and the catalytic constant (kcat) was found to be 0.195 ± 0.0017 s⁻¹.

On to `C[C@]12CC[C@H]3[C@@H](CCC4=CC(=O)CC[C@@]43C)[C@@H]1CC[C@@H]2C(=O)CO` [11-deoxycorticosterone], for which, on AKR1D1 [1], the Ki was less than 2 µM, the Km is less than 0.2 µM and the catalytic constant (kcat) is greater than 0.067 s⁻¹.

`CC(C)CCC[C@@H](C)[C@H]1CC[C@H]2[C@@H]3[C@H](O)CC4=CC(=O)CC[C@]4(C)[C@H]3CC[C@]12C` [4-Cholesten-7α-ol-3-one]: at AKR1D1 [1], the Michaelis constant (Km) came to 0.8 ± 0.2 µM and the catalytic constant (kcat) was 0.0333 ± 0.0017 s⁻¹.

B1: AKR1D1 (Homo sapiens) (protein)
chain: MDLSAASHRIPLSDGNSIPIIGLGTYSEPKSTPKGACATSVKVAIDTGYRHIDGAYIYQNEHEVGEAIREKIAEGKVRREDIFYCGKLWATNHVPEMVRPTLERTLRVLQLDYVDLYIIEVPMAFKPGDEIYPRDENGKWLYHKSNLCATWEAMEACKDAGLVKSLGVSNFNRRQLELILNKPGLKHKPVSNQVECHPYFTQPKLLKFCQQHDIVITAYSPLGTSRNPIWVNVSSPPLLKDALLNSLGKRYNKTAAQIVLRFNIQRGVVVIPKSFNLERIKENFQIFDFSLTEEEMKDIEALNKNVRFVELLMWRDHPEYPFHDEY
On to B1, for which, in data set [5], the Michaelis constant (Km) was determined as 13.1 ± 1.8 µM, the turnover number (kcat) came out at 0.045 ± 0.00167 s⁻¹ and the kcat/Km turned out to be 3500 M⁻¹ s⁻¹. In data set [6], the Km was found to be 2.5 ± 0.4 µM, the kcat came out at 0.15 ± 0.01 s⁻¹ and the kcat/Km came out at 61300 M⁻¹ s⁻¹. In data set [7], the Km stood at 2.9 ± 0.6 µM, the catalytic constant (kcat) was found to be 0.1 ± 0.0117 s⁻¹ and the catalytic efficiency (kcat/Km) stood at 34800 M⁻¹ s⁻¹.
